Experimental data: patent US9624214B2, “Amino-substituted imidazo[1,2-a]pyridinecarboxamides and their use” (BAYER PHARMA AKTIENGESELLSCHAFT, priority 2012, dated 2017)
Structures can show the parent of a compound that is named as a salt.

Molecular target: T1, recombinant guanylate cyclase reporter cell line (Rattus norvegicus, UniProt P19686+P20595)
T1 construct: expressed in transfected cells
T1 sequence (P20595 1-619): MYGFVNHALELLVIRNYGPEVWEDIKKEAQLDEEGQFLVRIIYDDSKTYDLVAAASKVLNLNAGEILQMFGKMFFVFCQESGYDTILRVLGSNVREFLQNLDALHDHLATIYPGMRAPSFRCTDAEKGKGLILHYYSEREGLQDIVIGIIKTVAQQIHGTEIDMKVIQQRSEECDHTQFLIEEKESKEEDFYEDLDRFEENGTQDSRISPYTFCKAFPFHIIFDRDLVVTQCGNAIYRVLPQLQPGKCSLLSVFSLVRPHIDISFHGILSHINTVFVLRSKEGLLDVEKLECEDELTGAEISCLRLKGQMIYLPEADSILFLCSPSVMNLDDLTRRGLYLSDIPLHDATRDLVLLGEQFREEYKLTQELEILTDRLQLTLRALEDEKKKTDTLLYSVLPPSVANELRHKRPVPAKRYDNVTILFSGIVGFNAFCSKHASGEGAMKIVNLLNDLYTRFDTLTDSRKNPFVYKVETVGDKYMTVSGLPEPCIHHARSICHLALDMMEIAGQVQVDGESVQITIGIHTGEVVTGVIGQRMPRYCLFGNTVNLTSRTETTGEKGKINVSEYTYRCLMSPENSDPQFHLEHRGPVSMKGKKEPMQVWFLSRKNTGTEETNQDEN
T1 sequence (P19686 1-690): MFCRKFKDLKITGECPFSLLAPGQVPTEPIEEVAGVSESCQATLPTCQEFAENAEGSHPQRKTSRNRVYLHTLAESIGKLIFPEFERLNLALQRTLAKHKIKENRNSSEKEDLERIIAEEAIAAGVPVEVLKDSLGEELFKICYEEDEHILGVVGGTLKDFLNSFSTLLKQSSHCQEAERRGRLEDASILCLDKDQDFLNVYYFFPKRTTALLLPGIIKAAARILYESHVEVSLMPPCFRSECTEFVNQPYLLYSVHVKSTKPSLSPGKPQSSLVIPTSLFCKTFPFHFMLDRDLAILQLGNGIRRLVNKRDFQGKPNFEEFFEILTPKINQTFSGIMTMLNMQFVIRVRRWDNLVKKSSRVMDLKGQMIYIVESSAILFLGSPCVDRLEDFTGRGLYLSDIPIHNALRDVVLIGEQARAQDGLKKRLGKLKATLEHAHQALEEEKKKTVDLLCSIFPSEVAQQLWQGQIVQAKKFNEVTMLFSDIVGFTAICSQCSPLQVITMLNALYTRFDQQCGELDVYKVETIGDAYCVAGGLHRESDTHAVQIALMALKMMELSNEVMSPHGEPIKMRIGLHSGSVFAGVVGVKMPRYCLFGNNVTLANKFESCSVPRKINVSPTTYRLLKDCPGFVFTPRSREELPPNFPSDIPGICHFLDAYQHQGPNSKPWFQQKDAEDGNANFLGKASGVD
Assay: B-2. Action on recombinant guanylate cyclase reporter cell line
Type: cell-based
Settings: MEC = minimal effective concentration; in some cases mean values from individual determinations
Method: B-2. Action on Recombinant Guanylate Cyclase Reporter Cell Line
The cellular action of the compounds according to the invention is determined on a recombinant guanylate cyclase reporter cell line, as described in F. Wunder et al., Anal. Biochem. 339, 104-112 (2005).
Representative MEC values (MEC=minimal effective concentration) for the compounds according to the invention are shown in the following table (in some cases as mean values obtained from individual determinations): […]

MEC [µM]	SMILES
0.20	Cc1cc(OCc2c(F)cccc2F)c2nc(C)c(C(=O)NC3CCC(N)C3)n2c1 (mixture of isomers) [Example 308, N-(3-aminocyclopentyl)-8-[(2,6-difluorobenzyl)oxy]-2,6-dimethylimidazo[1,2-a]pyridine-3-carboxamide (Stereoisomer Mixture)]
0.30	Cc1cc(OCc2c(F)cccc2F)c2nc(C)c(C(=O)NC3CNCC3C(F)(F)F)n2c1 (mixture of isomers) [Example 313, 8-[(2,6-Difluorobenzyl)oxy]-2,6-dimethyl-N-[4-(trifluoromethyl)pyrrolidin-3-yl]imidazo[1,2-a]pyridine-3-carboxamide (Mixture of Stereoisomers)]
1.00	Cc1cc(OCc2c(F)cccc2F)c2nc(C)c(C(=O)NC3CC(N)C3)n2c1 (mixture of isomers) [Example 334, N-(3-aminocyclobutyl)-8-[(2,6-difluorobenzyl)oxy]-2,6-dimethylimidazo[1,2-a]pyridine-3-carboxamide (cis/trans Mixture)]
0.30	Cc1cc(OCc2c(F)cccc2F)c2nc(C)c(C(=O)NC3CC(C)(C)C3N)n2c1 (mixture of isomers) [Example 358, N-(2-amino-3,3-dimethylcyclobutyl)-8-[(2,6-difluorobenzyl)oxy]-2,6-dimethylimidazo[1,2-a]pyridine-3-carboxamide Formate (Isomer Mixture)]
0.65	Cc1nc2c(OCc3c(F)cccc3F)cccn2c1C(=O)NC(CN)CC(F)(F)F (racemic) [Example 2, rac-N-(1-Amino-4,4,4-trifluorobutan-2-yl)-8-[(2,6-difluorobenzyl)oxy]-2-methylimidazo[1,2-a]-pyridine-3-carboxamide]
1.00	Cc1nc2c(OCc3c(F)cccc3F)cccn2c1C(=O)NC(CN)CC(C(F)(F)F)C(F)(F)F (racemic) [Example 5, rac-N-[1-amino-5,5,5-trifluoro-4-(trifluoromethyl)pentan-2-yl]-8-[(2,6-difluorobenzyl)oxy]-2-methylimidazo[1,2-a]-pyridine-3-carboxamide trifluoroacetate]
0.30	Cc1nc2c(OCc3c(F)cccc3F)cccn2c1C(=O)NC(CN)c1ccc(F)cc1 (racemic) [Example 9, rac-N-[2-Amino-1-(4-fluorophenyl)ethyl]-8-[(2,6-difluorobenzyl)oxy]-2-methylimidazo[1,2-a]-pyridine-3-carboxamide]
0.30	Cc1nc2c(OCc3c(F)cccc3F)cccn2c1C(=O)NC(CN)c1ccc(F)c(F)c1 (racemic) [Example 11, rac-N-[2-Amino-1-(3,4-difluorophenyl)ethyl]-8-[(2,6-difluorobenzyl)oxy]-2-methylimidazo[1,2-a]pyridine-3-carboxamide]
1.00	Cc1nc2c(OCc3c(F)cccc3F)cccn2c1C(=O)NC(CN)c1ccc(Cl)cc1 (racemic) [Example 14, rac-N-[2-Amino-1-(4-chlorophenyl)ethyl]-8-[(2,6-difluorobenzyl)oxy]-2-methylimidazo[1,2-a]-pyridine-3-carboxamide Dihydrochloride]
0.30	Cc1nc2c(OCc3c(F)cccc3F)cccn2c1C(=O)NC(CN)c1ccccc1 (racemic) [Example 16, rac-N-(2-Amino-1-phenylethyl)-8-[(2,6-difluorobenzyl)oxy]-2-methylimidazo[1,2-a]pyridine-3-carboxamide Dihydrochloride]
1.00	Cc1nc2c(OCc3c(F)cccc3F)cccn2c1C(=O)NC(C)CN (racemic) [Example 17, rac-N-(1-aminopropan-2-yl)-8-[(2,6-difluorobenzyl)oxy]-2-methylimidazo[1,2-a]-pyridine-3-carboxamide dihydrochloride]
0.30	Cc1nc2c(OCc3c(F)cccc3F)cc(Cl)cn2c1C(=O)NCC(C)N (racemic) [Example 23, rac-N-(2-aminopropyl)-6-chloro-8-[(2,6-difluorobenzyl)oxy]-2-methylimidazo[1,2-a]-pyridine-3-carboxamide]
0.30	Cc1nc2c(OCc3c(F)cccc3F)cccn2c1C(=O)NC1CNc2ccccc21 (racemic) [Example 28, rac-8-[(2,6-difluorobenzyl)oxy]-N-(2,3-dihydro-1H-indol-3-yl)-2-methylimidazo[1,2-a] pyridine-3-carboxamide]
1.00	Cc1nc2c(OCc3c(F)cccc3F)cccn2c1C(=O)NCC(C)N (racemic) [Example 34, rac-N-(2-aminopropyl)-8-[(2,6-difluorobenzyl)-oxy]-2-methylimidazo[1,2-a]pyridine-3-carboxamide dihydrochloride]
1.00	Cc1nc2c(OCC3CCCCC3)cccn2c1C(=O)NC(CN)c1ccc(Cl)cc1 (racemic) [Example 43, rac-N-[2-Amino-1-(4-chlorophenyl)ethyl]-8-(cyclohexylmethoxy)-2-methylimidazo[1,2-a]-pyridine-3-carboxamide]
0.30	Cc1nc2c(OCC3CCCCC3)cccn2c1C(=O)NC(CN)c1ccccc1 (racemic) [Example 44, rac-N-(2-Amino-1-phenylethyl)-8-(cyclohexylmethoxy)-2-methylimidazo[1,2-a]pyridine-3-carboxamide]
1.00	Cc1nc2c(OCC3CCCCC3)cccn2c1C(=O)NC(CN)c1ccc(F)c(F)c1 (racemic) [Example 46, rac-N-[2-Amino-1-(3,4-difluorophenyl)ethyl]-8-(cyclohexylmethoxy)-2-methylimidazo[1,2-a]-pyridine-3-carboxamide]
0.30	Cc1nc2c(OCc3c(F)cccc3F)cc(Cl)cn2c1C(=O)NC1CNc2ccccc21 (racemic) [Example 49, rac-6-Chloro-8-[(2,6-difluorobenzyl)oxy]-N-(2,3-dihydro-1H-indol-3-yl)-2-methylimidazo[1,2-a]-pyridine-3-carboxamide]
0.03	Cc1nc2c(OCc3c(F)cccc3F)cccn2c1C(=O)NC1CCNc2ccccc21 (racemic) [Example 50, rac-8-[(2,6-Difluorobenzyl)oxy]-2-methyl-N-(1,2,3,4-tetrahydroquinolin-4-yl)imidazo[1,2-a]-pyridine-3-carboxamide]
1.00	Cc1nc2c(OCc3c(F)cccc3F)cccn2c1C(=O)NC(CN)COc1ccc(F)cc1 (racemic) [Example 58, rac-N-[1-amino-3-(4-fluorophenoxy)propan-2-yl]-8-[(2,6-difluorobenzyl)oxy]-2-methylimidazo[1,2-a]pyridine-3-carboxamide]
3.00	Cc1nc2c(OCc3c(F)cccc3F)cccn2c1C(=O)NC(CN)COc1ccccc1 (racemic) [Example 59, rac-N-(1-amino-3-phenoxypropan-2-yl)-8-[(2,6-difluorobenzyl)oxy]-2-methylimidazo[1,2-a]-pyridine-3-carboxamide dihydrochloride]
0.30	Cc1nc2c(OCc3c(F)cccc3F)cccn2c1C(=O)NC(CN)COC(C)C (racemic) [Example 63, rac-N-(1-Amino-3-isopropoxypropan-2-yl)-8-[(2,6-difluorobenzyl)oxy]-2-methylimidazo[1,2-a]-pyridine-3-carboxamide]
